Results from PubChem BioAssay AID1963834 (Molecular Pharmacology Branch, DTP, NCI, 2024).

Tested on: 873145-292-R-J1-PDC complex spheroid viability
Experiment: Anticancer human tumor 873145-292-R-J1-PDC patient-derived renal clear cell carcinoma cell line growth inhibition [POLQ]
Conditions: for IC50: curve of first compound; for viability, T/C: stronger effect = lower value
In short: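 PDC + HUVEC + MSC complex spheroids; POLQ inhibitors ± partner drugs; top conc. at/near clinical Cmax, else 10 microM (SN-38 1 microM), half-log dilutions; 37 degrees C, 5% CO2.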

[1] = second compound 0.0316 µM, first compound 0.0316 µM
[2] = second compound 0.0316 µM, first compound 0.1 µM
[3] = second compound 0.0316 µM, first compound 0.316 µM
[4] = second compound 0.0316 µM, first compound 1 µM
[5] = second compound 0.0316 µM, first compound 3.16 µM
[6] = second compound 0.0316 µM, first compound 10 µM
[7] = second compound 0.1 µM, first compound 0.0316 µM
[8] = second compound 0.1 µM, first compound 0.1 µM
[9] = second compound 0.1 µM, first compound 0.316 µM
[10] = second compound 0.1 µM, first compound 1 µM
[11] = second compound 0.1 µM, first compound 3.16 µM
[12] = second compound 0.1 µM, first compound 10 µM
[13] = second compound 0.316 µM, first compound 0.0316 µM
[14] = second compound 0.316 µM, first compound 0.1 µM
[15] = second compound 0.316 µM, first compound 0.316 µM
[16] = second compound 0.316 µM, first compound 1 µM
[17] = second compound 0.316 µM, first compound 3.16 µM
[18] = second compound 0.316 µM, first compound 10 µM
[19] = second compound 1 µM, first compound 0.0316 µM
[20] = second compound 1 µM, first compound 0.1 µM
[21] = second compound 1 µM, first compound 0.316 µM
[22] = second compound 1 µM, first compound 1 µM
[23] = second compound 1 µM, first compound 3.16 µM
[24] = second compound 1 µM, first compound 10 µM
[25] = second compound 3.16 µM, first compound 0.0316 µM
[26] = second compound 3.16 µM, first compound 0.1 µM
[27] = second compound 3.16 µM, first compound 0.316 µM
[28] = second compound 3.16 µM, first compound 1 µM
[29] = second compound 3.16 µM, first compound 3.16 µM
[30] = second compound 3.16 µM, first compound 10 µM
[31] = second compound 10 µM, first compound 0.0316 µM
[32] = second compound 10 µM, first compound 0.1 µM
[33] = second compound 10 µM, first compound 0.316 µM
[34] = second compound 10 µM, first compound 1 µM
[35] = second compound 10 µM, first compound 3.16 µM
[36] = second compound 10 µM, first compound 10 µM
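Note: spheroids exposed to compounds for 7 days before viability readout.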
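Throughout, for viability, T/C: luminescence signal used as surrogate for viable cell content; 100% = DMSO vehicle control viability.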

C=CC(=O)N1CCN(c2nc(=O)n(-c3c(C)ccnc3C(C)C)c3nc(-c4c(O)cccc4F)c(F)cc23)C(C)C1 (stereo unspecified) + Nc1ccc(C#CCN(C(=O)Cc2ncc(C(F)(F)F)cc2C(F)(F)F)c2ccc(F)cc2)nn1
IC50 (second compound 0.0316 µM): > 10 µM
IC50 (second compound 0.1 µM): > 10 µM
IC50 (second compound 0.316 µM): > 10 µM
IC50 (second compound 1 µM): > 10 µM
IC50 (second compound 3.16 µM): > 10 µM
IC50 (second compound 10 µM): > 10 µM
viability, T/C [1]: 112%
viability, T/C [2]: 105%
viability, T/C [3]: 106%
viability, T/C [4]: 120%
viability, T/C [5]: 132%
viability, T/C [6]: 134%
viability, T/C [7]: 111%
viability, T/C [8]: 110%
viability, T/C [9]: 117%
viability, T/C [10]: 124%
viability, T/C [11]: 119%
viability, T/C [12]: 128%
viability, T/C [13]: 116%
viability, T/C [14]: 117%
viability, T/C [15]: 103%
viability, T/C [16]: 126%
viability, T/C [17]: 135%
viability, T/C [18]: 123%
viability, T/C [19]: 107%
viability, T/C [20]: 110%
viability, T/C [21]: 107%
viability, T/C [22]: 129%
viability, T/C [23]: 136%
viability, T/C [24]: 126%
viability, T/C [25]: 112%
viability, T/C [26]: 116%
viability, T/C [27]: 113%
viability, T/C [28]: 131%
viability, T/C [29]: 135%
viability, T/C [30]: 139%
viability, T/C [31]: 126%
viability, T/C [32]: 113%
viability, T/C [33]: 119%
viability, T/C [34]: 132%
viability, T/C [35]: 134%
viability, T/C [36]: 142%

CC(C)n1c(=O)n(C)c2cnc3cc(F)c(-c4ccc(OCCCN5CCCCC5)nc4)cc3c21 + Nc1ccc(C#CCN(C(=O)Cc2ncc(C(F)(F)F)cc2C(F)(F)F)c2ccc(F)cc2)nn1
IC50 (second compound 0.0316 µM): > 10 µM
IC50 (second compound 0.1 µM): > 10 µM
IC50 (second compound 0.316 µM): > 10 µM
IC50 (second compound 1 µM): > 10 µM
IC50 (second compound 3.16 µM): > 10 µM
IC50 (second compound 10 µM): > 10 µM
viability, T/C [1]: 97.1%
viability, T/C [2]: 106%
viability, T/C [3]: 97.8%
viability, T/C [4]: 102%
viability, T/C [5]: 99.6%
viability, T/C [6]: 107%
viability, T/C [7]: 107%
viability, T/C [8]: 112%
viability, T/C [9]: 97.1%
viability, T/C [10]: 108%
viability, T/C [11]: 93.8%
viability, T/C [12]: 80.5%
viability, T/C [13]: 104%
viability, T/C [14]: 115%
viability, T/C [15]: 97%
viability, T/C [16]: 103%
viability, T/C [17]: 104%
viability, T/C [18]: 72.1%
viability, T/C [19]: 109%
viability, T/C [20]: 106%
viability, T/C [21]: 113%
viability, T/C [22]: 96%
viability, T/C [23]: 97%
viability, T/C [24]: 85.8%
viability, T/C [25]: 99.8%
viability, T/C [26]: 111%
viability, T/C [27]: 92.4%
viability, T/C [28]: 102%
viability, T/C [29]: 101%
viability, T/C [30]: 86.1%
viability, T/C [31]: 110%
viability, T/C [32]: 101%
viability, T/C [33]: 108%
viability, T/C [34]: 107%
viability, T/C [35]: 104%
viability, T/C [36]: 86%

CC1COCCN1c1cc(C2(S(C)(=N)=O)CC2)nc(-c2ccnc3[nH]ccc23)n1 (stereo unspecified) + Nc1ccc(C#CCN(C(=O)Cc2ncc(C(F)(F)F)cc2C(F)(F)F)c2ccc(F)cc2)nn1
IC50 (second compound 0.0316 µM): > 10 µM
IC50 (second compound 0.1 µM): > 10 µM
IC50 (second compound 0.316 µM): > 10 µM
IC50 (second compound 1 µM): > 10 µM
IC50 (second compound 3.16 µM): > 10 µM
IC50 (second compound 10 µM): > 10 µM
viability, T/C [1]: 103%
viability, T/C [2]: 99.2%
viability, T/C [3]: 102%
viability, T/C [4]: 80.5%
viability, T/C [5]: 73.9%
viability, T/C [6]: 71%
viability, T/C [7]: 107%
viability, T/C [8]: 98.4%
viability, T/C [9]: 82%
viability, T/C [10]: 83.3%
viability, T/C [11]: 88.9%
viability, T/C [12]: 67.8%
viability, T/C [13]: 102%
viability, T/C [14]: 92.8%
viability, T/C [15]: 84.7%
viability, T/C [16]: 92.3%
viability, T/C [17]: 78.2%
viability, T/C [18]: 69.6%
viability, T/C [19]: 90.7%
viability, T/C [20]: 90%
viability, T/C [21]: 90.8%
viability, T/C [22]: 88.5%
viability, T/C [23]: 80.2%
viability, T/C [24]: 64.4%
viability, T/C [25]: 92.2%
viability, T/C [26]: 97.1%
viability, T/C [27]: 101%
viability, T/C [28]: 82.8%
viability, T/C [29]: 82%
viability, T/C [30]: 73.2%
viability, T/C [31]: 105%
viability, T/C [32]: 106%
viability, T/C [33]: 103%
viability, T/C [34]: 110%
viability, T/C [35]: 85.5%
viability, T/C [36]: 81.3%
